# Measured values: patent US20240245770A1, “COMPOSITIONS AND METHODS FOR TREATING NEUROMUSCULAR DISORDERS” (The Regents of the University of California, priority 2019, published 2024)
# Test system: serum cytokine/chemokine/growth factor/ligands of ALS patient
# Assay: Serum Luminex, before and after NAC treatment
# Assay type: in vivo, human
# Experimental: (§1) Serum Luminex. Serum from patients were used to determine the levels of cytokine/chemokine/growth factor/ligands secretion using multiplex luminex assay. Scatter plot was prepared using the levels of cytokine/chemokine/growth factor/ligands in serum obtained at different dates from patients as compared to controls.
# Serum Luminex. Serum from patients were used to determine the levels of cytokine/chemokine/growth factor/ligands secretion using multiplex luminex assay.
# as §1
# [1] = JC sera Apr. 30, 2020 (NAC infusion)
# [2] = JC sera Jun. 22, 2020 (NAC infusion)
# [3] = JC sera Jun. 24, 2020 (NAC infusion)
# [4] = JC sera May 7, 2020 (NAC infusion)
# [5] = JC sera May 14, 2020 (NAC infusion)
# [6] = JC sera May 21, 2020 (NAC infusion)
# [7] = JC sera May 28, 2020 (NAC infusion)
# [8] = serum of ALS patient after NAC treatment
smiles,measurement,setting,value
"CC(=O)N[C@@H](CS)C(=O)O [NAC, N-Acetyl-Cysteine]",IL-5,"JC sera Apr. 30, 2020",2 pg/mL
same,IL-7,"JC sera Apr. 30, 2020",6.25 pg/mL
same,IL-8,"JC sera Apr. 30, 2020",4.28 pg/mL
same,IL-21,"JC sera Apr. 30, 2020",0.86 pg/mL
same,IL-23,"JC sera Apr. 30, 2020",138.55 pg/mL
same,MIP-1a,"JC sera Apr. 30, 2020",11.35 pg/mL
same,MIP-1b,"JC sera Apr. 30, 2020",17.78 pg/mL
same,TNFa,"JC sera Apr. 30, 2020",8.46 pg/mL
same,Franktalkine,[1],35.49 pg/mL
same,GM-CSF,[1],59.71 pg/mL
same,IFNg,[1],9.14 pg/mL
same,IL-1b,[1],1.03 pg/mL
same,IL-10,[1],5.71 pg/mL
same,IL-12p70,[1],2.32 pg/mL
same,ITAC,[1],14.07 pg/mL
same,MIP-3a,[1],8.17 pg/mL
same,IL-2,"JC sera Jun. 22, 2020",0.04 pg/mL
same,IL-4,"JC sera Jun. 22, 2020",15.17 pg/mL
same,IL-5,"JC sera Jun. 22, 2020",2.44 pg/mL
same,IL-6,"JC sera Jun. 22, 2020",3.33 pg/mL
same,IL-7,"JC sera Jun. 22, 2020",7.25 pg/mL
same,IL-8,"JC sera Jun. 22, 2020",5.21 pg/mL
same,IL-21,"JC sera Jun. 22, 2020",0.86 pg/mL
same,IL-23,"JC sera Jun. 22, 2020",158.41 pg/mL
same,MIP-1a,"JC sera Jun. 22, 2020",12.15 pg/mL
same,MIP-1b,"JC sera Jun. 22, 2020",24.21 pg/mL
same,TNFa,"JC sera Jun. 22, 2020",9.2 pg/mL
same,Franktalkine,[2],35.49 pg/mL
same,GM-CSF,[2],50.3 pg/mL
same,IFNg,[2],10.42 pg/mL
same,IL-1b,[2],0.91 pg/mL
same,IL-10,[2],8.54 pg/mL
same,IL-12p70,[2],2.32 pg/mL
same,IL-13,[2],5.03 pg/mL
same,IL-17A,[2],6.86 pg/mL
same,ITAC,[2],13.07 pg/mL
same,MIP-3a,[2],10.65 pg/mL
same,IL-2,"JC sera Jun. 24, 2020",0.17 pg/mL
same,IL-4,"JC sera Jun. 24, 2020",10.14 pg/mL
same,IL-5,"JC sera Jun. 24, 2020",2.1 pg/mL
same,IL-7,"JC sera Jun. 24, 2020",5.13 pg/mL
same,IL-8,"JC sera Jun. 24, 2020",4.47 pg/mL
same,IL-21,"JC sera Jun. 24, 2020",0.62 pg/mL
same,IL-23,"JC sera Jun. 24, 2020",106.21 pg/mL
same,MIP-1a,"JC sera Jun. 24, 2020",12.15 pg/mL
same,MIP-1b,"JC sera Jun. 24, 2020",27.78 pg/mL
same,TNFa,"JC sera Jun. 24, 2020",8.82 pg/mL
same,Franktalkine,[3],35.11 pg/mL
same,GM-CSF,[3],111.4 pg/mL
same,IFNg,[3],4.58 pg/mL
same,IL-1b,[3],0.77 pg/mL
same,IL-10,[3],23.69 pg/mL
same,IL-12p70,[3],1.64 pg/mL
same,IL-13,[3],3.95 pg/mL
same,IL-17A,[3],2.46 pg/mL
same,ITAC,[3],10.44 pg/mL
same,MIP-3a,[3],8.55 pg/mL
same,IL-2,"JC sera May 7, 2020",0.21 pg/mL
same,IL-4,"JC sera May 7, 2020",7.5 pg/mL
same,IL-5,"JC sera May 7, 2020",1.77 pg/mL
same,IL-6,"JC sera May 7, 2020",1.37 pg/mL
same,IL-7,"JC sera May 7, 2020",4.06 pg/mL
same,IL-8,"JC sera May 7, 2020",3.39 pg/mL
same,IL-21,"JC sera May 7, 2020",0.62 pg/mL
same,IL-23,"JC sera May 7, 2020",116.26 pg/mL
same,MIP-1a,"JC sera May 7, 2020",10.39 pg/mL
same,MIP-1b,"JC sera May 7, 2020",16.67 pg/mL
same,TNFa,"JC sera May 7, 2020",7.45 pg/mL
same,Franktalkine,[4],33.33 pg/mL
same,GM-CSF,[4],58.44 pg/mL
same,IFNg,[4],4.81 pg/mL
same,IL-1b,[4],0.72 pg/mL
same,IL-10,[4],6.63 pg/mL
same,IL-12p70,[4],1.6 pg/mL
same,IL-13,[4],3.99 pg/mL
same,IL-17A,[4],2.78 pg/mL
same,ITAC,[4],13.07 pg/mL
same,MIP-3a,[4],7.8 pg/mL
same,IL-2,"JC sera May 12, 2020",0 pg/mL
same,IL-4,"JC sera May 12, 2020",10.14 pg/mL
same,IL-6,"JC sera May 12, 2020",1.76 pg/mL
same,IL-7,"JC sera May 12, 2020",5.13 pg/mL
same,IL-8,"JC sera May 12, 2020",4.18 pg/mL
same,IL-21,"JC sera May 12, 2020",0.62 pg/mL
same,IL-23,"JC sera May 12, 2020",92.37 pg/mL
same,MIP-1a,"JC sera May 12, 2020",11.8 pg/mL
same,MIP-1b,"JC sera May 12, 2020",25.53 pg/mL
same,TNFa,"JC sera May 12, 2020",7.14 pg/mL
same,IL-2,"JC sera May 14, 2020",8.16 pg/mL
same,IL-4,"JC sera May 14, 2020",13.73 pg/mL
same,IL-5,"JC sera May 14, 2020",1.72 pg/mL
same,IL-6,"JC sera May 14, 2020",1.07 pg/mL
same,IL-7,"JC sera May 14, 2020",6.39 pg/mL
same,IL-8,"JC sera May 14, 2020",5.32 pg/mL
same,IL-21,"JC sera May 14, 2020",0.56 pg/mL
same,IL-23,"JC sera May 14, 2020",106.21 pg/mL
same,MIP-1a,"JC sera May 14, 2020",12.15 pg/mL
same,MIP-1b,"JC sera May 14, 2020",19.37 pg/mL
same,TNFa,"JC sera May 14, 2020",7.77 pg/mL
same,Franktalkine,[5],31.36 pg/mL
same,GM-CSF,[5],53.64 pg/mL
same,IFNg,[5],4.14 pg/mL
same,IL-1b,[5],0.8 pg/mL
same,IL-10,[5],4.47 pg/mL
same,IL-12p70,[5],1.81 pg/mL
same,IL-13,[5],4.08 pg/mL
same,IL-17A,[5],2.24 pg/mL
same,ITAC,[5],12.13 pg/mL
same,MIP-3a,[5],6.78 pg/mL
same,Franktalkine,[6],32.65 pg/mL
same,GM-CSF,[6],48.19 pg/mL
same,IFNg,[6],5.58 pg/mL
same,IL-1b,[6],0.8 pg/mL
same,IL-10,[6],3.7 pg/mL
same,IL-12p70,[6],1.72 pg/mL
same,IL-13,[6],3.99 pg/mL
same,ITAC,[6],15.13 pg/mL
same,MIP-3a,[6],6.78 pg/mL
same,IL-2,"JC sera May 28, 2020",0.01 pg/mL
same,IL-4,"JC sera May 28, 2020",11.8 pg/mL
same,IL-5,"JC sera May 28, 2020",2.21 pg/mL
same,IL-6,"JC sera May 28, 2020",2.03 pg/mL
same,IL-7,"JC sera May 28, 2020",5.99 pg/mL
same,IL-8,"JC sera May 28, 2020",4.47 pg/mL
same,IL-21,"JC sera May 28, 2020",0.75 pg/mL
same,IL-23,"JC sera May 28, 2020",144.83 pg/mL
same,MIP-1a,"JC sera May 28, 2020",11.46 pg/mL
same,MIP-1b,"JC sera May 28, 2020",25.53 pg/mL
same,TNFa,"JC sera May 28, 2020",8.64 pg/mL
same,Franktalkine,[7],37.04 pg/mL
same,GM-CSF,[7],75.6 pg/mL
same,IFNg,[7],8.94 pg/mL
same,IL-1b,[7],0.87 pg/mL
same,IL-10,[7],6.63 pg/mL
same,IL-12p70,[7],2.16 pg/mL
same,IL-13,[7],4.44 pg/mL
same,IL-17A,[7],5.49 pg/mL
same,ITAC,[7],14.77 pg/mL
same,MIP-3a,[7],8.17 pg/mL
same,serum cytokines of ALS patient compared to healthy twin after NAC treatment,"serum Luminex, Table 137",only IFN-g and TNF-α remained higher in ALS patient when compared to healthy twin
same,change of serum cytokines after NAC treatment,"serum from ALS patient, Table 138",Decrease in respective cytokines
same,Fractalkine,[8],39.89
same,GCSF,[8],82.17
same,IFNa2,[8],22.87
same,IFNg,[8],21.25
same,IL-6,[8],14.86
same,IL-12p40,[8],15.96
same,IL-12p70,[8],9.801
same,IL-17a,[8],14.45
same,Rantes,[8],9578
same,TNFa,"serum of ALS patient after NAC treatment, in pg/mL",29.18
